This is an account of results in PMC6193938, “Characterization of a novel AICARFT inhibitor which potently elevates ZMP and has anti-tumor activity in murine models” (Scientific Reports, 2018).

One test concerns the target T1, TBK1 (Homo sapiens, UniProt Q9UHD2).
T1 construct: purchased CEREP Panlabs (Eurofins)
T1 sequence (Q9UHD2 1-729): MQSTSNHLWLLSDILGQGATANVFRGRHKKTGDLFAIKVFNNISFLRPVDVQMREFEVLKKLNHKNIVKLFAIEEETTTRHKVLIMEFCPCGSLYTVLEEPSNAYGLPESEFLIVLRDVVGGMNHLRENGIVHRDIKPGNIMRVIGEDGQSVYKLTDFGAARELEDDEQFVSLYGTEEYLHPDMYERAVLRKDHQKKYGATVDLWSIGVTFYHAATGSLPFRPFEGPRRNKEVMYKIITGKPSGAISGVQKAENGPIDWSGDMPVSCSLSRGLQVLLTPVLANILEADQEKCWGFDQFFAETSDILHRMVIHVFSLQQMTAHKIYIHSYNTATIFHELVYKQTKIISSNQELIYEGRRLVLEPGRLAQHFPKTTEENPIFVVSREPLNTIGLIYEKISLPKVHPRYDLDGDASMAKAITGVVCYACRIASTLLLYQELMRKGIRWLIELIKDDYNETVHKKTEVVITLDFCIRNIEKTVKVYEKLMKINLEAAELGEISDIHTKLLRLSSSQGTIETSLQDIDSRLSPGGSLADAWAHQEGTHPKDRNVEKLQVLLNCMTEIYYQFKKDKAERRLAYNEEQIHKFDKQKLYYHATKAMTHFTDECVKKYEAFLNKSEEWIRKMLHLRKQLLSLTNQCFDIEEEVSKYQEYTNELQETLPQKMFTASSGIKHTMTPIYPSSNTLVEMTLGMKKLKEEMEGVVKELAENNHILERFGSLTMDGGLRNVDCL
As to the kind of experiment: CEREP protein kinase assay. Type of test: biochemical.

Another test concerns the target T2, ABL (Homo sapiens, UniProt P00519).
T2 construct: purchased CEREP Panlabs (Eurofins)
Kind of test: CEREP protein kinase assay. The test is classed as biochemical.

The next test addresses T3, AKT1 (Homo sapiens, UniProt P31749).
T3 construct: purchased CEREP Panlabs (Eurofins)
As to the kind of experiment: CEREP protein kinase assay. The test is classed as biochemical.

In the next test the target is T4, ROCK2 (Homo sapiens, UniProt O75116).
T4 construct: purchased CEREP Panlabs (Eurofins)
Kind of test: CEREP protein kinase assay. Type of test: biochemical.

In a further test the target is T5, ERK1 (Homo sapiens, UniProt P27361).
T5 construct: purchased CEREP Panlabs (Eurofins)
Kind of test: CEREP protein kinase assay. Type of test: biochemical.

Test [1] relates to P70S6K T389 phosphorylation in MDA-MB-231met2 tumors. Kind of test: Western analysis of tumors. Type of test: in vivo, mouse. To be noted: 30 and 60 mg/kg BIDx22 PO. Here is the method: (§1) The levels of total AMPKα and P70S6K are also shown. […] The levels of total AMPKα are also shown. […] Full images and the croppings used in this figure are shown in Supplemental Figures S14–S21.
(§2) Antibodies were purchased as follows: pAMPK Thr172 (Cell Signaling #2535), p-p70S6 Thr389 (Cell Signaling #9205), total p70S6 (Cell Signaling #2708), total AMPKα (Cell Signaling #2793) and Actin (Sigma #A5441). Frozen tumor samples were lysed with 500 µL ice cold lysis buffer plus Halt protease inhibitor (ThermoFisher #78430) using a Power Gen 125 tissue grinder (Fisher Scientific). Western blots were run as described in the supplemental material.
(§3) For the in vivo study with MDA-MB-231met2 (Figure 6A) 40 ug of total protein was resolved on a 10% Tris HCl Criterion XT precast gel (BioRad) at 100 V for 90 minutes. Transfer electrophoresed proteins to a 0.2 µm nitrocellulose membrane using Trans Blot Turbo System (BioRad). Block membranes for 1 hr at RT in 5% skim milk. Probe overnight 4°C for primary antibodies. Blots were washed 3-5 min in 20 mL TBS-0.1% Tween-20. Apply appropriate secondary antibody for 1-3 hours RT. Wash blots 3 x 5 min in 20 mL TBS-0.1% Tween20 and develop signal using Super Signal Western Femto kit (Thermo) on Image Reader LAS-4000 (Fuji Film Life Science).

The test system of test [2] is AMPK T172 phosphorylation in MDA-MB-231met2 tumors. Kind of test: Western analysis of tumors. Type of test: in vivo, mouse. Conditions: 30 and 60 mg/kg BIDx22 PO. The method, then: as §1, §2, §3
The next test concerns the target T6, JNK3 (Homo sapiens, UniProt P53779).
T6 construct: purchased CEREP Panlabs (Eurofins)
Kind of test: CEREP protein kinase assay. The test is classed as biochemical.

The next test deals with T7, EPHB2 (Homo sapiens, UniProt P29323).
T7 construct: purchased CEREP Panlabs (Eurofins)
T7 sequence (P29323 19-1055): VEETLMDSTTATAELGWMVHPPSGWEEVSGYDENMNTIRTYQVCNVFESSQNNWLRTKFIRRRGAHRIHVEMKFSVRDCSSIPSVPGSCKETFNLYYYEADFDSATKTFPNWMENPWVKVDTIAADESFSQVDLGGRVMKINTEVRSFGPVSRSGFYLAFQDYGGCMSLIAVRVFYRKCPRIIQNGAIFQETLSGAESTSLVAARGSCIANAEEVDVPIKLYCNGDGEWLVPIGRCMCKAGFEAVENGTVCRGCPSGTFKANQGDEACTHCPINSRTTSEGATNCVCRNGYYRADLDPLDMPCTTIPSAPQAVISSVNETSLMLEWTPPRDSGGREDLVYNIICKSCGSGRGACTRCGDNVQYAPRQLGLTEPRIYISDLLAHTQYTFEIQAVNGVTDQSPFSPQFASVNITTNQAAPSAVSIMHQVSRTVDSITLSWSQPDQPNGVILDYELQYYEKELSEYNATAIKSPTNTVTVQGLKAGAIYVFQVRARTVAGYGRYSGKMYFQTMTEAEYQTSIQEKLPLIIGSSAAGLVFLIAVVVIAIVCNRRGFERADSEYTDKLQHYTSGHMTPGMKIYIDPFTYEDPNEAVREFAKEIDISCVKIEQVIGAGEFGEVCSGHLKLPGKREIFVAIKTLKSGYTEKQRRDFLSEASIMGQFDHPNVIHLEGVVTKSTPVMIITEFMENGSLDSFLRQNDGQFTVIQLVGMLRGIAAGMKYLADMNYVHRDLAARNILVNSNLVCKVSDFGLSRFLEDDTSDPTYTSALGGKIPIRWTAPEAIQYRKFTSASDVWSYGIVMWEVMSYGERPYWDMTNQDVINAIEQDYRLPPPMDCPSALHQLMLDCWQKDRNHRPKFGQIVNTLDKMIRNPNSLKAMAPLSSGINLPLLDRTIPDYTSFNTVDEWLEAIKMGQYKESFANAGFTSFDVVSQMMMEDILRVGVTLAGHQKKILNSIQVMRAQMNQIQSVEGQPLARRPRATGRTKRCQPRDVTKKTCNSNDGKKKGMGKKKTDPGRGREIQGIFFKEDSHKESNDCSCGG
As to the kind of experiment: CEREP protein kinase assay. Type of test: biochemical.

T3 sequence (P31749 whole entry): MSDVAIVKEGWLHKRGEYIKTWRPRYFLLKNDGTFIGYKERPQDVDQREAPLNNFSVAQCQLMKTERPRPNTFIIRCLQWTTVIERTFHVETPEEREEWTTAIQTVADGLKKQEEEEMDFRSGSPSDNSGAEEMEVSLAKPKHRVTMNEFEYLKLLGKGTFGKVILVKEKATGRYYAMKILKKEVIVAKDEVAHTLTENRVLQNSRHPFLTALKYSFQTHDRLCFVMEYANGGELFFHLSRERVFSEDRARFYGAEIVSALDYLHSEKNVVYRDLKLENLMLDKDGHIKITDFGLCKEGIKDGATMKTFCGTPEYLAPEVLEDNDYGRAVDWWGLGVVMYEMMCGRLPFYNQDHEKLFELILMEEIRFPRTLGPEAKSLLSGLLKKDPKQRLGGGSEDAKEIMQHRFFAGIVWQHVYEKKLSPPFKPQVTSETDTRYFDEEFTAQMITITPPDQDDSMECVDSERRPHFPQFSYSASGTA
T5 sequence (P27361 whole entry): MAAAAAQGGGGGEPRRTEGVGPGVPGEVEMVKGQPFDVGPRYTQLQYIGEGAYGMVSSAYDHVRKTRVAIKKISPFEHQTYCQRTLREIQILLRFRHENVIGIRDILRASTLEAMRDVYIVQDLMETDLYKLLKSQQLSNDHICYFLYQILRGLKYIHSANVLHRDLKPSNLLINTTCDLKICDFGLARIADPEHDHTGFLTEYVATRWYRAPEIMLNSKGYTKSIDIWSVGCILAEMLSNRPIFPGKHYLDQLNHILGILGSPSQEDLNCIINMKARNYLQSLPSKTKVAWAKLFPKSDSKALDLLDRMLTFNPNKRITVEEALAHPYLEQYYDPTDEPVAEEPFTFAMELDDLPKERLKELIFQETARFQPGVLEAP
T6 sequence (P53779 whole entry): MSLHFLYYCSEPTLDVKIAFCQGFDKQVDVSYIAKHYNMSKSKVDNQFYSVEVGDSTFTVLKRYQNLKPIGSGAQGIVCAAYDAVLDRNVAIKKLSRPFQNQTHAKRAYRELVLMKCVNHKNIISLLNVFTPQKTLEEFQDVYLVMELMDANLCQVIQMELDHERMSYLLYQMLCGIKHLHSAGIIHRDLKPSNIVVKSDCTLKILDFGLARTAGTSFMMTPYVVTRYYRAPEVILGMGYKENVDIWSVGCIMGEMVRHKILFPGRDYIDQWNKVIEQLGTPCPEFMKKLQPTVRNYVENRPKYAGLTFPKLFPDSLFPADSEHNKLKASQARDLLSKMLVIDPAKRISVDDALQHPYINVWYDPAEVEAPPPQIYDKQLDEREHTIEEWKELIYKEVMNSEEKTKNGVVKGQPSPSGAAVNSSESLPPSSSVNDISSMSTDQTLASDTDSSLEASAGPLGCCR
T2 sequence (P00519 whole entry): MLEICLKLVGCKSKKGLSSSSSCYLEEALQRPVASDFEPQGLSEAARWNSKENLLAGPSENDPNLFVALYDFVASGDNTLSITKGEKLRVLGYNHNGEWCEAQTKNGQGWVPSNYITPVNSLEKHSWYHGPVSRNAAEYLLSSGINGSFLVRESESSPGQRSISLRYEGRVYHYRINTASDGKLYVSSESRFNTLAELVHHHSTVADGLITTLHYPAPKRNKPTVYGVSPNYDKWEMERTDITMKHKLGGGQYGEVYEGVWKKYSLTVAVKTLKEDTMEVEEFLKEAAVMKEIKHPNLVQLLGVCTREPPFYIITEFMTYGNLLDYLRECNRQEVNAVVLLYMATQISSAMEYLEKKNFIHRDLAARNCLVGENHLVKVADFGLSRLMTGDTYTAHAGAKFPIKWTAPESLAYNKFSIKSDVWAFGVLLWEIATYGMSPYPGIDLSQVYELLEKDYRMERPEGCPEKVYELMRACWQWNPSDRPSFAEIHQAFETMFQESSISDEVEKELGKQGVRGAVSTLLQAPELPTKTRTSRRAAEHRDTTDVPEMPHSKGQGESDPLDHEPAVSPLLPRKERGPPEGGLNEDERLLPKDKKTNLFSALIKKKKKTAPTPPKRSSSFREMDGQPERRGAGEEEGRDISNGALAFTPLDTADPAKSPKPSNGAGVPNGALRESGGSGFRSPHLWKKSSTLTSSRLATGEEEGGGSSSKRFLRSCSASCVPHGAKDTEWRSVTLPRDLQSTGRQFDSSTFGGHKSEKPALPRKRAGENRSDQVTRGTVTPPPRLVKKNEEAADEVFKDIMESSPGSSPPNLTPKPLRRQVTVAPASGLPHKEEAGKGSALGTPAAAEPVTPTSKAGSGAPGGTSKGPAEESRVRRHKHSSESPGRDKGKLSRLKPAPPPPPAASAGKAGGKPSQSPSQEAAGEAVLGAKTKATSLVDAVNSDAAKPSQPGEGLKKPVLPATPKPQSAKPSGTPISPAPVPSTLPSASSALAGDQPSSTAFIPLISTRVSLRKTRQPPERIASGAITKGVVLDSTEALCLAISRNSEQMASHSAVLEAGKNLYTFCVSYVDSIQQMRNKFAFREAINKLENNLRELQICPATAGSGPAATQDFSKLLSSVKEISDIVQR
T4 sequence (O75116 whole entry): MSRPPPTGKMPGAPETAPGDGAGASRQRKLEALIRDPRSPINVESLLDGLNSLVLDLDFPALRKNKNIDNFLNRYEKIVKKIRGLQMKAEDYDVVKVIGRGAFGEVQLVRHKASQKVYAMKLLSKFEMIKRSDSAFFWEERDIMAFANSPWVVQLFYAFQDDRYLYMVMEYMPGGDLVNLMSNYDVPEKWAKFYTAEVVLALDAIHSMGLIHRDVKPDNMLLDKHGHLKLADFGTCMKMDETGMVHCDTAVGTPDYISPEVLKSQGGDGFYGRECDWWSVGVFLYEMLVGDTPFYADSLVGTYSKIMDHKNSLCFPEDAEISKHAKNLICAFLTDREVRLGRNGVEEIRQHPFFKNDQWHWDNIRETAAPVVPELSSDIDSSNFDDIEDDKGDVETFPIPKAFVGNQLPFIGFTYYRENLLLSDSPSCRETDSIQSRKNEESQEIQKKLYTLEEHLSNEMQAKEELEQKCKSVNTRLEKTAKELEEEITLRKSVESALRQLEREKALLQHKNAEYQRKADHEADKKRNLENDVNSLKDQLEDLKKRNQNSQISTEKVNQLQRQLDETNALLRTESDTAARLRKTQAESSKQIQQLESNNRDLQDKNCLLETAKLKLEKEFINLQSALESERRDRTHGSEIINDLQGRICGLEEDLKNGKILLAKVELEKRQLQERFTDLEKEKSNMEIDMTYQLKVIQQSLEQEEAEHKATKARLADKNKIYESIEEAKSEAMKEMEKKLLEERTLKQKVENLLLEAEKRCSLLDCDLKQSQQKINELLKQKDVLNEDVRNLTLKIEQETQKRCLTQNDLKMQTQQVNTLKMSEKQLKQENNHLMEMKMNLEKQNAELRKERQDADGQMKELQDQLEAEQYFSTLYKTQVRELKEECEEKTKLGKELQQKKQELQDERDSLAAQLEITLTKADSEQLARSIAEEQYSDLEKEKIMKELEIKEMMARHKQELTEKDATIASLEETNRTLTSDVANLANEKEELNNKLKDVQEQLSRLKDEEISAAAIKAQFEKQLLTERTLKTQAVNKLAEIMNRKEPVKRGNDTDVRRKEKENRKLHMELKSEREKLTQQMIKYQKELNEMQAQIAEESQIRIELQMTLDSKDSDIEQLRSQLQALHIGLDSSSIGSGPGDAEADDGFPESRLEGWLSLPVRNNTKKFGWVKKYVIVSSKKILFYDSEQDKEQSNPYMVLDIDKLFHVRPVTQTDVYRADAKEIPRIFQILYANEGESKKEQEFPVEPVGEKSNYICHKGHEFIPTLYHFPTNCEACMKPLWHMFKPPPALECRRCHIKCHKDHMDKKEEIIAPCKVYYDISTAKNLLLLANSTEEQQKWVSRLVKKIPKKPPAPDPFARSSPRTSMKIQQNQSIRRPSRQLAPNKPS

As for `O=c1[nH]ccc2cc(F)c(NS(=O)(=O)c3ccc(N4CC[C@@H](O)C4)s3)cc12` [LSN3213128, N-(6-Fluoro-1-oxo-1,2-dihydroisoquinolin-7-yl)-5-[(3R)-3-hydroxypyrrolidin-1-yl]thiophene-2-sulfonamide], the inhibition at 0.2 µM is -3.62% on TBK1 (@ 0.2 uM); -13.8% on ABL (@ 0.2 uM); -1.76% at AKT1 (@ 0.2 uM); -3.09% on ROCK2 (@ 0.2 uM); -2.6% against ERK1 (@ 0.2 uM); -0.752% at JNK3 (@ 0.2 uM). Moreover, the inhibition at 0.2 µM against EPHB2 (@ 0.2 uM) was -14.3%. Also, the inhibition at 2 µM at TBK1 (@ 2 uM) is 13.1%; on ABL (@ 2 uM) it was -14.6%; on AKT1 (@ 2 uM) it was 5.52%; on ROCK2 (@ 2 uM), 4.72%; at ERK1 (@ 2 uM) it was 9.15%; against JNK3 (@ 2 uM), 19.2%. For the same compound, the inhibition at 2 µM against EPHB2 (@ 2 uM) was 8.96%. Also, the inhibition at 20 µM at TBK1 (@ 20 uM) was 11%; against ABL (@ 20 uM) it was -0.27%; on AKT1 (@ 20 uM), -6.9%; on ROCK2 (@ 20 uM), 5.81%; on ERK1 (@ 20 uM), 53.7%; against JNK3 (@ 20 uM), 76.2%. The inhibition at 20 µM against EPHB2 (@ 20 uM) is 12%. Moreover, the “P70S6K T389 phosphorylation” value in [1] is given as “showed no change”. Moreover, the “AMPK T172 phosphorylation levels in vivo” value in [2] is “remained elevated”.
